Data on 37 compounds can be found in patent US8802664B2 (Bioproject, priority 2010, dated 2014).

One series concerns the target T1, human H4 receptor (Homo sapiens, UniProt Q9H3N8).
T1 construct: expressed in transfected cells
In words: [3H]Histamine binding on membranes of CHO cells stably expressing human H4 receptor. An outline of the steps:
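First, thawed CHO membranes carrying human H4 were diluted to 20 μg protein per well in pH 7.4 Tris/EDTA buffer. Next, incubation was ended by rapid filtration through PEI-treated GF/B filters followed by cold rinses. Finally, retained radioactivity was counted; 10 μM JNJ 7777120 marked nonspecific binding.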

T1 sequence (Q9H3N8 whole entry): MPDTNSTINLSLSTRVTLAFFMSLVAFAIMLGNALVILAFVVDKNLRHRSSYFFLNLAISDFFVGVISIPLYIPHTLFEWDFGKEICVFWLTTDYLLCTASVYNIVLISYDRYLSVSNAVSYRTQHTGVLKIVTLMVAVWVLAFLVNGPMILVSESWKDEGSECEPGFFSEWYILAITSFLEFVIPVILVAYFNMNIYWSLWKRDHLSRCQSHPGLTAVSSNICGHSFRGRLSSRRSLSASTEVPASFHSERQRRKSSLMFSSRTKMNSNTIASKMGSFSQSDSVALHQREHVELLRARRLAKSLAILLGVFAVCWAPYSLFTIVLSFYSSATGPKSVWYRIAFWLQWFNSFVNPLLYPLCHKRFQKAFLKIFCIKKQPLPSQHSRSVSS

The term melting point denotes the temperature of the solid-liquid transition. Turning to `CN1CCC(NC(c2cccc(O)c2)c2nc3ccccc3[nH]2)CC1` (centres unmarked) [Example 126, 3-[(1H-benzimidazol-2-yl)(1-methylpiperidin-4-ylamino)methyl]phenol], the melting point was determined as 230 °C. On human H4 receptor, this compound had a Ki or IC50 activity class of less than 300 nM.

`CN1CCC(OC(c2nc3ccccc3[nH]2)c2cc(SCCCF)ccc2O)CC1` (centres unmarked) [Example 612] yielded a melting point of 128 °C. For the same compound, the Ki or IC50 activity class at human H4 receptor was less than 30 nM.

Compound `CC(C)CCCOc1cccc(C(NC2CCN(C)CC2)c2nc3ccccc3[nH]2)c1` (centres unmarked) [Example 146, {(1H-benzimidazol-2-yl)[3-(4-methylpentyloxy)phenyl]methyl}(1-methylpiperidin-4-yl)amine] yielded a melting point of 73 °C. Moreover, on human H4 receptor, the Ki or IC50 activity class was less than 300 nM.

Regarding `CCOC(=O)NCCCC#Cc1ccc(F)c(C(OC2CCN(C)CC2)c2nc3ccccc3[nH]2)c1` (centres unmarked) [Example 560], the melting point amounted to 87 °C. This compound also showed a Ki or IC50 activity class on human H4 receptor of less than 300 nM.

Compound `COc1cccc(C(OC2CCN(C)CC2)c2nc3ccccc3[nH]2)c1` (centres unmarked) [Example 542] came in with a melting point of 83 °C. The compound also gave a Ki or IC50 activity class at human H4 receptor of less than 30 nM.

In turn, `CN1CC=C(SC(c2cccc(Br)c2)c2nc3ccccc3[nH]2)CC1` (centres unmarked) [Example 530, 2-[(3-bromophenyl)(1-methyl-1,2,3,6-tetrahydropyridin-4-ylsulfanyl)methyl]-1H-benzimidazole] came in with a melting point of 189 °C. The Ki or IC50 activity class at human H4 receptor was less than 1000 nM.

As to `CN1CCC(OC(c2nc3ccccc3[nH]2)c2cc(OC(F)(F)F)ccc2F)CC1` (centres unmarked) [Example 433, 2-[(2-fluoro-5-trifluoromethoxyphenyl)(1-methylpiperidin-4-yloxy)methyl]-1H-benzimidazole], the melting point was 95 °C. For the same compound, at human H4 receptor, the Ki or IC50 activity class is less than 30 nM.

For the compound `COc1cccc(C(OC2CCN(C)CC2)c2nc3ccccc3[nH]2)c1O` (centres unmarked) [Example 592], the melting point is 112 °C. Further, the Ki or IC50 activity class at human H4 receptor is less than 300 nM.

For the compound `CSc1ccccc1-c1cccc(C(OC2CCN(C)CC2)c2nc3ccccc3[nH]2)c1` (centres unmarked) [Example 114, 2-[(1-methylpiperidin-4-yloxy)(2′-methylsulfanylbiphenyl-3-yl)methyl]-1H-benzimidazole], the melting point is 163 °C. Moreover, the Ki or IC50 activity class on human H4 receptor was less than 300 nM.

As for `CN1CCC(OC(c2cccc(SCCNC(=N)N)c2)c2nc3cc(F)ccc3[nH]2)CC1` (centres unmarked) [Example 437, N-(2-{3-[(5-fluoro-1H-benzimidazol-2-yl)(1-methylpiperidin-4-yloxy)methyl]phenylsulfanyl}ethyl)guanidine], the melting point came to 170 °C. Further, the Ki or IC50 activity class at human H4 receptor was less than 30 nM.

Consider `CCCc1ccc(O)c(C(OC2CCN(C)CC2)c2nc3ccccc3[nH]2)c1` (centres unmarked) [Example 591], for which the melting point was determined as 120 °C. The same compound had a Ki or IC50 activity class on human H4 receptor of less than 300 nM.

The compound `CN1CCC(NC(c2cccc(OC(F)(F)F)c2)c2nc3ccccc3[nH]2)CC1` (centres unmarked) [Example 60, [(1H-benzimidazol-2-yl)(3-trifluoromethoxyphenyl)methyl](1-methylpiperidin-4-yl)amine] showed a melting point of 82 °C. This compound also came in with a Ki or IC50 activity class at human H4 receptor of less than 30 nM.

In the case of `CN1CCC(OC(c2cccc(-c3ccccc3CO)c2)c2nc3ccccc3[nH]2)CC1` (centres unmarked) [Example 123, {3′-[(1H-benzimidazol-2-yl)(1-methylpiperidin-4-yloxy)methyl]biphenyl-2-yl}methanol], the melting point came out at 107 °C. In addition, the Ki or IC50 activity class at human H4 receptor is less than 1000 nM.

`CC(=O)c1cccc(C(NC2CCN(C)CC2)c2nc3ccccc3[nH]2)c1` (centres unmarked) [Example 90, 1-{3-[(1H-benzimidazol-2-yl)(1-methylpiperidin-4-ylamino)methyl]phenyl}ethanone] displayed a melting point of 198 °C. The Ki or IC50 activity class on human H4 receptor was less than 300 nM.

`CN1CCC(OC(c2ccccc2)c2nc3cc(F)ccc3[nH]2)CC1` (centres unmarked) [Example 166, 5-fluoro-2-[(1-methylpiperidin-4-yloxy)phenylmethyl]-1H-benzimidazole]: the melting point was 134 °C. Further, the Ki or IC50 activity class at human H4 receptor is less than 30 nM.

`CN1CCC(OC(c2nc3ccccc3[nH]2)c2cccc(F)c2O)CC1` (centres unmarked) [Example 581] yielded a melting point of 145 °C. The same compound registered a Ki or IC50 activity class at human H4 receptor of less than 30 nM.

Take `CN1CCC(NC(c2cccc(OCc3ccccc3)c2)c2nc3ccccc3[nH]2)CC1` (centres unmarked) [Example 65, [(1H-benzimidazol-2-yl)(3-benzyloxyphenyl)methyl](1-methylpiperidin-4-yl)amine]: the melting point amounted to 78 °C. On human H4 receptor, this compound had a Ki or IC50 activity class of less than 30 nM.

In turn, `CN1CCC(OC(c2nc3ccccc3[nH]2)c2ccccc2Br)CC1` (centres unmarked) [Example 262, 2-[(2-bromophenyl)(1-methylpiperidin-4-yloxy)methyl]-1H-benzimidazole] came in with a melting point of 213 °C. Also, the Ki or IC50 activity class on human H4 receptor is less than 300 nM.

`CN1CCC(OC(c2cccc(Br)c2)c2nc3cc(F)c(F)cc3[nH]2)CC1` (centres unmarked) [Example 469, 2-[(3-bromophenyl)(1-methylpiperidin-4-yloxy)methyl]-5,6-difluoro-1H-benzimidazole]: the melting point was determined as 70 °C. The Ki or IC50 activity class on human H4 receptor is less than 1000 nM.

Consider `CN1CCC(OC(c2nc3ccccc3[nH]2)c2cccc(OC(F)(F)F)c2O)CC1` (centres unmarked) [Example 620], for which the melting point worked out at 126 °C. The same compound registered a Ki or IC50 activity class on human H4 receptor of less than 30 nM.

For the compound `C=CCCOc1cccc(C(NC2CCN(C)CC2)c2nc3ccccc3[nH]2)c1` (centres unmarked) [Example 145, [(1H-benzimidazol-2-yl)(3-but-3-enyloxyphenyl)methyl](1-methylpiperidin-4-yl)amine], the melting point turned out to be 71 °C. Also, at human H4 receptor, the Ki or IC50 activity class was less than 300 nM.

For the compound `CN1CCC(OC(c2cccc(SCCCO)c2)c2nc3ccccc3[nH]2)CC1` (centres unmarked) [Example 246, 3-{3-[(1H-benzimidazol-2-yl)(1-methylpiperidin-4-yloxy)methyl]phenylsulfanyl}propan-1-ol], the melting point fell in the range of 97 to 99 °C. Moreover, the Ki or IC50 activity class at human H4 receptor was less than 300 nM.

As for `CN1CCC(OC(c2nc3ccccc3[nH]2)c2ccccc2OC(F)(F)F)CC1` (centres unmarked) [Example 251, 2-[(1-methylpiperidin-4-yloxy)(2-trifluoromethoxy-phenyl)methyl]-1H-benzimidazole], the melting point stood at 193 °C. This compound also came in with a Ki or IC50 activity class at human H4 receptor of less than 1000 nM.

For `CN1CCC(OC(c2nc3ccccc3[nH]2)c2cc(F)c(F)cc2O)CC1` (centres unmarked) [Example 583], the melting point was determined as 198 °C. For the same compound, the Ki or IC50 activity class on human H4 receptor is less than 300 nM.

`Cc1cc(O)c(C(OC2CCN(C)CC2)c2nc3ccccc3[nH]2)cc1F` (centres unmarked) [Example 613] gave a melting point of 102 °C. Besides, the Ki or IC50 activity class on human H4 receptor was less than 30 nM.

`CN1CCC(OC(c2nc3ccccc3[nH]2)c2ccccc2F)CC1` (centres unmarked) [Example 167, 2-[(2-fluorophenyl)(1-methylpiperidin-4-yloxy)methyl]-1H-benzimidazole] showed a melting point of 181 °C. Moreover, the Ki or IC50 activity class on human H4 receptor is less than 30 nM.

`COc1ccc(O)c(C(OC2CCN(C)CC2)c2nc3ccccc3[nH]2)c1` (centres unmarked) [Example 573] yielded a melting point of 146 °C. This compound yielded a Ki or IC50 activity class at human H4 receptor of less than 300 nM.

In the case of `Cc1ccc(C(OC2CCN(C)CC2)c2nc3ccccc3[nH]2)c(O)c1F` (centres unmarked) [Example 601, 6-[(1H-benzimidazol-2-yl)(1-methylpiperidin-4-yloxy)methyl]-2-fluoro-3-methylphenol], the melting point stood at 148 °C. This compound returned a Ki or IC50 activity class at human H4 receptor of less than 30 nM.

Compound `CN1CCC(OC(c2cccc(OCCN)c2)c2nc3ccccc3[nH]2)CC1` (centres unmarked) [Example 291, 2-{3-[(1H-benzimidazol-2-yl)(1-methylpiperidin-4-yloxy)methyl]phenoxy}ethylamine] came in with a melting point of 90 °C. The Ki or IC50 activity class on human H4 receptor was less than 300 nM.

As to `CN1CCC(NC(c2ccccc2)c2nc3ccccc3[nH]2)CC1` (centres unmarked) [Example 39, [(1H-benzimidazol-2-yl)phenylmethyl](1-methylpiperidin-4-yl)amine], the melting point amounted to 133 °C. Moreover, the Ki or IC50 activity class at human H4 receptor is less than 300 nM.

As for `CN1CCC(OC(c2nc3ccccc3[nH]2)c2cc(OC(F)(F)F)ccc2O)CC1` (centres unmarked) [Example 571], the melting point turned out to be 132 °C. The Ki or IC50 activity class on human H4 receptor is less than 30 nM.

In turn, `CN1CCC(OC(c2cccc(OCCN)c2)c2nc3ccccc3s2)CC1` (centres unmarked) [Example 271, 2-{3-[benzothiazol-2-yl(1-methylpiperidin-4-yloxy)methyl]phenoxy}ethylamine] registered a melting point of 76 °C. This compound also returned a Ki or IC50 activity class on human H4 receptor of less than 30 nM.

Compound `COc1ccc(COc2cccc(C(NC3CCN(C)CC3)c3nc4ccccc4[nH]3)c2)cc1` (centres unmarked) [Example 124, {(1H-benzimidazol-2-yl)[3-(4-methoxybenzyloxy)phenyl]methyl}(1-methylpiperidin-4-yl)amine] displayed a melting point of 84 °C. Also, on human H4 receptor, the Ki or IC50 activity class is less than 30 nM.

Compound `CCCOc1cccc(C(NC2CCN(C)CC2)c2nc3ccccc3[nH]2)c1` (centres unmarked) [Example 50, [(1H-benzimidazol-2-yl)(3-propoxyphenyl)methyl](1-methylpiperidin-4-yl)amine] gave a melting point of 143 °C. For the same compound, the Ki or IC50 activity class at human H4 receptor is less than 30 nM.

`CN1CCC(OC(c2cccc(-c3cncnc3)c2)c2nc3ccccc3s2)CC1` (centres unmarked) [Example 216, 2-[(1-methylpiperidin-4-yloxy)(3-pyrimidin-5-yl-phenyl)methyl]benzothiazole] showed a melting point of 85 °C. On human H4 receptor, this compound came in with a Ki or IC50 activity class of less than 300 nM.

For the compound `CN1CCC(OC(c2ccccc2)c2nc3ccccc3s2)CC1` (centres unmarked) [Example 1, 2-[(1-methylpiperidin-4-yloxy)phenylmethyl]benzothiazole], the melting point came out at 115 °C. Moreover, the Ki or IC50 activity class at human H4 receptor is less than 300 nM.

In the case of `CN1CCC(OC(c2cccc(-c3ccccc3F)c2)c2nc3ccccc3[nH]2)CC1` (centres unmarked) [Example 142, 2-[(2′-fluorobiphenyl-3-yl)(1-methylpiperidin-4-yloxy)methyl]-1H-benzimidazole], the melting point came to 90 °C. The same compound returned a Ki or IC50 activity class on human H4 receptor of less than 300 nM.
